Patent publication US4990499A, “Anti-herpes simplex virus activity of 5-alkoxymethyl-2'-deoxycytidimes and their 5-monophosphates” (priority 1989, dated 1991)
Values belong to the compound of their own block, whether it stands above or below them.

Columns and labels:
[1] = test system: Herpes simplex virus type 1 (HSV-1); experiment: Antiviral activity against HSV-1, viral plaque reduction (ED50); assay type: cell-based; conditions: FIG. 13; HSV-1 KOS and 76, Vero, 20 PFU
[2] = test system: Herpes simplex virus type 1 (HSV-1); experiment: as above; assay type: cell-based; conditions: for reversal of antiviral activity of MMdCyd, order of potency: FIGS. 4 to 6
Method: (§1) Infected cells were treated with different concentrations of MMdCyd and the concentration required to reduce viral plaque formation by 50%, i.e. ED50, was determined.
(§2) ^a ED50 : Concentration required to reduce viral plaque formatio
Vero cells were infected with the KOS strain of HSV-1. The compound of compounds indicated in Table 2, below, and are shown graphically in FIGS. 1, (H4 dUrd) and 2 (H4 Urd).
^a Antiviral assays were carried out using Vero cells. All compounds
were added immediately after virus infection.
(§3) The antiviral activity of MMdCyd in the presence of H4 dUrd was determined against several strains of HSV-1 and HSV-2.
Vero cells were infected with HSV-1, strain 76 and treated with MMdCyd at different times post virus infection.
The antiviral activity, ^a cyctotoxicity* and antiviral indices of MMdCyd in the presence of H4 dUrd, dGuo and H4 dUrd+dGuo were determined.
^a Antiviral assays were carried out using Vero cells. Compounds were
added immediately after virus infection. Virus HSV1, strains KOS and 76;
KOS, virus input = 50 PFU

[3] = test system: Herpes simplex virus type 2 (HSV-2); experiment: Antiviral activity against HSV-2, viral plaque reduction (ED50); assay type: cell-based; conditions: HSV-2
Method: as §1, §2, §3
^a Antiviral assays were carried out using Vero cells. Virus input 50
^b ED50 : Concentration required to reduce viral plaque formatio

[4] = test system: Deoxynucleoside Triphosphate (dNTP) Pools in Uninfected Vero Cells; experiment: Deoxynucleoside triphosphate (dNTP) pools in uninfected (mock-infected) Vero cells; assay type: cell-based
Method: Vero cells were treated with MMdCyd, H4 dUrd and MMdCyd+H4 dUrd. The cells were then assayed for the presence of deoxynucleoside triphosphates. Untreated Vero cells were also assayed for the presence of deoxynucleoside triphosphates, to provide a control.
^a Cells were mock infected for one hour. Different treatments were
^b Values are means of at least two assays of triplicate cell
(§4) Vero cells and HSV-infected Vero cells were treated with dGUO and dGUO and H4 dUrd. The cells were then assayed for the presence of deoxynucleoside triphosphates. Untreated Vero cells were also assayed for the presence of deoxynucleoside triphophate to provide a control.
Vero cells were treated with N-methyl-MMdCyd. The cells were then assayed for dNTP pools.

[5] = test system: Deoxynucleoside Triphosphate (dNTP) Pools in Vero Cells Infected with Herpes Simplex Virus Type 1; experiment: Deoxynucleoside triphosphate (dNTP) pools in HSV-1 infected Vero cells; assay type: cell-based; conditions: Table 16, HSV-1 KOS infected Vero, treatment 7 hours, ± S.E.
Method: Example 9 was repeated, except that the Vero cells subjected to the treatment had all been infected with HSV-1 KOS strain prior to the treatment.
^a Cells were infected with 10 PFU/cell of HSV1 KOS strain for one
hour. Treatments were given for seven hours.
^a Cells were infected with 10 PFU/cell of HSV1, KOS strain after
^b H4 dUrd in MEM was added immediately after adsorption and
^c H4 dUrd in MEM was added immediately after adsorption and
as §4
^c Cells were infected with 10 PFU/cell of HSV1 strain KOS for one

HSV-1 DNA Polymerase = HSV-1 DNA Polymerase (Human herpesvirus 1, UniProt P04293); experiment: In vitro DNA synthesis by HSV-1 DNA polymerase ([3H]dAMP incorporation); assay type: biochemical, Herpes simplex virus type 1; conditions: HSV-1 DNA polymerase
Method: The relative in vitro DNA synthesis by HSV-1 DNA Polymerase using dCTP or MMdCTP as the rate limiting substrate was determined. The synthesis was followed by assaying an incorporation of tritium labelled dAMP.
+ unlabelled dNTP concentration 10 μM
++ Radio labelled [^3 H]dAMP conc 0.2 μM
*One hundred percent activity represents 27355 cpm of [^3 H]dAMP
(§5) The number of pmoles of [^3 H] dAMP incorporated into control samples (`O`MMdCTP) was subtracted from pmoles of test samples. Other nucleotides,dATP, dTTP and dGTP were in excess (10 μm). Each assay was performed in triplicate.
(§6) ^+ unlabeled dNTP concentration (10 μM).
(§7) ^++ 0.2 μM of [^3 H]dATP was used in each assay.

[6] = target: T1, human DNA polymerase alpha (Homo sapiens, UniProt P09884); experiment: In vitro DNA synthesis by human DNA polymerase alpha ([3H]dAMP incorporation); assay type: biochemical; conditions: Human α-DNA polymerase
T1 sequence (P09884 1-1462): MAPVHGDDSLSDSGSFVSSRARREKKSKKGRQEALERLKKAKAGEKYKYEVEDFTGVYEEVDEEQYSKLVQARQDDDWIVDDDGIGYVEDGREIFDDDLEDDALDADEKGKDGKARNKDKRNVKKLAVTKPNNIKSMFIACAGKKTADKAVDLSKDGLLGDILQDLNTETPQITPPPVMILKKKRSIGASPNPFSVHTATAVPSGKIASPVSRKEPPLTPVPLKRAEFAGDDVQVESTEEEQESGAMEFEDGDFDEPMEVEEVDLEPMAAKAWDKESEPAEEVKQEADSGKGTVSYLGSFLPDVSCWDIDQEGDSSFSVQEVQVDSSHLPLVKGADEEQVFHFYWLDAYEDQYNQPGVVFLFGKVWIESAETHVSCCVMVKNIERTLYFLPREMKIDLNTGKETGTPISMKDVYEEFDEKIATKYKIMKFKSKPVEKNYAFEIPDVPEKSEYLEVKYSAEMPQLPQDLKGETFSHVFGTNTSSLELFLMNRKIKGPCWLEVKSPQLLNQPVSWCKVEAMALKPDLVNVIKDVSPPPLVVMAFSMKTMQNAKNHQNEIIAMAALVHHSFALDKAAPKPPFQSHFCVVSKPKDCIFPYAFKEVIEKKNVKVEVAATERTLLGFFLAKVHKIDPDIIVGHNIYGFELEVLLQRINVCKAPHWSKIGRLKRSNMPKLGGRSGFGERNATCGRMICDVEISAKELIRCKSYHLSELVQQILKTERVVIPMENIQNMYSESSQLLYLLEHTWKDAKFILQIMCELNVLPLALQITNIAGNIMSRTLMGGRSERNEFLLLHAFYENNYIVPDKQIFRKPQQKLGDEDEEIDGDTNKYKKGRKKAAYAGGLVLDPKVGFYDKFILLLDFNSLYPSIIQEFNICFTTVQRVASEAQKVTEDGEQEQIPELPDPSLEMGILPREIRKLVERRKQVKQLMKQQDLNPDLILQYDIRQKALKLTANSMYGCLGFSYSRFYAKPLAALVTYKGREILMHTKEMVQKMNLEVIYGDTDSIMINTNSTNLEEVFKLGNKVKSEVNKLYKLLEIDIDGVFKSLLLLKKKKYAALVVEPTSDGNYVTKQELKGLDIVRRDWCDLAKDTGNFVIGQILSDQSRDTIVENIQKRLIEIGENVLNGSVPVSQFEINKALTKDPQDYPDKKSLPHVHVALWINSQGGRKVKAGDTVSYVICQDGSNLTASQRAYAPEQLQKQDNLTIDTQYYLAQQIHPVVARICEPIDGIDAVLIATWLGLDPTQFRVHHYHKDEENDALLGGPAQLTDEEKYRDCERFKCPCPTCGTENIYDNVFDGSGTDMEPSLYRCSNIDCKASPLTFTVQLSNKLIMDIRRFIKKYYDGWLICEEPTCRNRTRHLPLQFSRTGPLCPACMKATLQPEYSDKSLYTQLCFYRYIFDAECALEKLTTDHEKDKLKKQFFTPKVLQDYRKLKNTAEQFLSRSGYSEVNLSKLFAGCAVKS
Method: A comparison of in vitro DNA synthesis by viral and cellular DNA polymerases with MMdCTP as an alternative substrate. The results are shown graphically in FIG. 14 and compare HSV-1 DNA polymerase and human DNA polymerase alpha activity.
as §5, §6, §7

E. coli DNA Polymerase 1 = E. coli DNA Polymerase 1 (Escherichia coli, UniProt P00582); experiment: In vitro DNA synthesis by E. coli DNA polymerase 1 ([3H]dAMP incorporation); assay type: biochemical
Method: ^a Enzymatic assays were carried out with 1 unit of Sigma E. coli DNA
Polymerase 1. dTTP, dGTP and [^3 H] dATP were non limiting (5 μM).
^b Values obtained are net after subtracting "0" samples which did no
^c Amount of NMeMMdCTP used with each concentration of dCTP was 0.625

[7] = Table 16, uninfected Vero, treatment 7 hours, ± S.E.

Chain of E. coli DNA Polymerase 1 (P00582 whole entry): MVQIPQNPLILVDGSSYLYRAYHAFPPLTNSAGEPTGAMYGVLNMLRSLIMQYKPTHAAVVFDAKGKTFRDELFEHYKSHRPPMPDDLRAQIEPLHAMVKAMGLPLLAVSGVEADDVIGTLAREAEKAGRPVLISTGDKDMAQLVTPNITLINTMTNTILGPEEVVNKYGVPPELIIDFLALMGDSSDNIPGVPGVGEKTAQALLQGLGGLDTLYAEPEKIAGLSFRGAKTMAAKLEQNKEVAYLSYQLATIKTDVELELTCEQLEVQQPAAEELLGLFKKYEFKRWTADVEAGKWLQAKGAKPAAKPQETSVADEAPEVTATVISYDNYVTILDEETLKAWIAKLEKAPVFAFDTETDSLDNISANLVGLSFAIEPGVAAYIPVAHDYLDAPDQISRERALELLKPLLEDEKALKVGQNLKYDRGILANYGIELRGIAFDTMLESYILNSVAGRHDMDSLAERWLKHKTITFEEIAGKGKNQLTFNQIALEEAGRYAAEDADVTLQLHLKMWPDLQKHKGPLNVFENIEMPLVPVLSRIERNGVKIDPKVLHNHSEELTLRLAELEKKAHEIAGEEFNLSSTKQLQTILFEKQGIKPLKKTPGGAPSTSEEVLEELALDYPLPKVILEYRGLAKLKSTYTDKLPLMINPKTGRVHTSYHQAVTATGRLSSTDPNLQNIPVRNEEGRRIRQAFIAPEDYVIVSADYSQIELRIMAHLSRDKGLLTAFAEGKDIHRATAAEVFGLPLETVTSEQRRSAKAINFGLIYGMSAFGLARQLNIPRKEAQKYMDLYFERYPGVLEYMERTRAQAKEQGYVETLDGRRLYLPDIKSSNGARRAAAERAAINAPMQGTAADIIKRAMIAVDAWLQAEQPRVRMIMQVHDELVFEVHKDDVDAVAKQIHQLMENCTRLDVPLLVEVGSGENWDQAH
Chain of HSV-1 DNA Polymerase (P04293 whole entry): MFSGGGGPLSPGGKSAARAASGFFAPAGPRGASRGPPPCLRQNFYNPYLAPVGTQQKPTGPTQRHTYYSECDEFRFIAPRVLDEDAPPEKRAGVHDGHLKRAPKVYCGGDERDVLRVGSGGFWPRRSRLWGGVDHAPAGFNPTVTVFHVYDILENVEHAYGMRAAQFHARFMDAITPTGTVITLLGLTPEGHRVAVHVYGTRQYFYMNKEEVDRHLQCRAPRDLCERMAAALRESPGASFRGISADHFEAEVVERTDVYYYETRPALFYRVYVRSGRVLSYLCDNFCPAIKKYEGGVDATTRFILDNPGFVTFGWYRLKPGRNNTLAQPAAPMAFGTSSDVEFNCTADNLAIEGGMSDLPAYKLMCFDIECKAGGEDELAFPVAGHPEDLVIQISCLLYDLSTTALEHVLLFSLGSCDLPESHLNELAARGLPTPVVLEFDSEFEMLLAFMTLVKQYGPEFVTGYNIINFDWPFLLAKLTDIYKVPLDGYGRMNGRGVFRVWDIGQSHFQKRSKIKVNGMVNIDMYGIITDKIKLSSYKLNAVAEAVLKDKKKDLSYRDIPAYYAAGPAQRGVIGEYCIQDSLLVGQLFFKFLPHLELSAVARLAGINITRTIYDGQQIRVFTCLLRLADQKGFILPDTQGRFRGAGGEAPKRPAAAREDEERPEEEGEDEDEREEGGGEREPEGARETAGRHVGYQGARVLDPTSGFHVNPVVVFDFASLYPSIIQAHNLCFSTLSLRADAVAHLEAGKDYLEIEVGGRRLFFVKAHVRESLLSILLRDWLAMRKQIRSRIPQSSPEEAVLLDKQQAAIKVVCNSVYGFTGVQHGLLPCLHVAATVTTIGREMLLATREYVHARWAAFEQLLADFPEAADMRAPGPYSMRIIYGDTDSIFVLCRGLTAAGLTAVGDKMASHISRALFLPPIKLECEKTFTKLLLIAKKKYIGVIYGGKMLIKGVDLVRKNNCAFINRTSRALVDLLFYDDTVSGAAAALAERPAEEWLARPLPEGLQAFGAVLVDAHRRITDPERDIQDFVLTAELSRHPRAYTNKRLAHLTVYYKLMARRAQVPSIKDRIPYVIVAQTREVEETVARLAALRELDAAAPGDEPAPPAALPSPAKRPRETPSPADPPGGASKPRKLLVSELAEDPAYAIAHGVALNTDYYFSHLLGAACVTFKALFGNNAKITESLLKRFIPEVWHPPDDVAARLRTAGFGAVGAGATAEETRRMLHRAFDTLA

Compound: Nc1ncnc2c1ncn2[C@H]1C[C@H](O)[C@@H](CO)O1 [Deoxyadenosine, reference compound]
effect on antiviral activity of MMdCyd [1]: no effect on antiherpes activity of MMdCyd

EC50 [2]: 535 µM
Compound: COCc1cn([C@H]2C[C@H](OC(C)=O)[C@@H](COC(C)=O)O2)c(=O)nc1N [Di-AC-MMdCyd, 5-methoxymethyl-3',5'-diacetyl-2'-deoxycytidine]
potency against HSV-1 relative to parent compound (times lower) ([2]; vs MMdCyd, cell culture): approximately 20 times

Compound: O=C1NC(O)CCN1[C@@H]1O[C@H](CO)[C@@H](O)[C@H]1O (stereo partly drawn) [H4 Urd, tetrahydrouridine, reference compound]
potentiation of the activity of MMdCyd (fold) ([2]; H4 Urd with MMdCyd): approximately 2 fold

EC50 [2]: 10 to 14 µM
Compound: COCc1cn([C@H]2C[C@H](O)[C@@H](COP(=O)(O)O)O2)c(=O)nc1N [MMdCMP, 5-methoxymethyl-2'-deoxycytidine monophosphate]
antiviral activity ([2]; HSV-1): potent inhibitor of HSV-1

EC50 [2]: > 530 µM
Compound: Cc1cn([C@H]2C[C@H](O)[C@@H](CO)O2)c(=O)nc1N [MedCyd, 5-methyl-2'-deoxycytidine, reference compound]
antiviral activity ([2]; up to 128 μg/ml, HSV-1): devoid of activity

EC50 [2]: > 1800 µM
Compound: CNc1nc(=O)n([C@H]2C[C@H](O)[C@@H](COP(=O)(O)O)O2)cc1COC [N-Me-MMdCMP, 5-Methoxymethyl-N^4-methyl-2'-deoxycytidine-5'-monophosphate]
antiviral activity ([2]; HSV-1): completely inert
antiviral activity [3]: completely inert

EC50 [2]: > 1800 µM
Compound: CNc1nc(=O)n([C@H]2C[C@H](O)[C@@H](CO)O2)cc1COC [N-Me-MMdCyd, 5-methoxymethyl-N4-methyl-2'-deoxycytidine]
antiherpes activity ([2]; summary statement): completely devoid of antiherpes activity
antiviral activity ([2]; up to 1796 μM): devoid of antiviral activity
dATP pool [4, 7]: 32.2 ± 2.5 .rho. moles/10^6 cells
dCTP pool [4, 7]: 17.3 ± 1.32 .rho. moles/10^6 cells
dGTP pool [4, 7]: 36.3 ± 1.67 .rho. moles/10^6 cells
dTTP pool [4, 7]: 38.6 ± 1.22 .rho. moles/10^6 cells
effect on dNTP pools ([4]; Vero cells): did not cause perturbation of dNTP pools to any significant degree
dATP pool [5]: 7.4 ± 0.4 .rho. moles/10^6 cells
dCTP pool [5]: 18 ± 1.08 .rho. moles/10^6 cells
dGTP pool [5]: 58.9 ± 2.22 .rho. moles/10^6 cells
dTTP pool [5]: 419 ± 10.6 .rho. moles/10^6 cells

Compound: CNc1nc(=O)n([C@H]2C[C@H](O)[C@@H](COP(=O)(O)OP(=O)(O)OP(=O)(O)O)O2)cc1COC [N-MeMMdCTP]
incorporation into DNA / substrate (HSV-1 DNA Polymerase): not incorporated into DNA
incorporation into DNA / substrate [6]: not incorporated into DNA
interference with incorporation of dCTP into DNA (E. coli DNA Polymerase 1; E. coli DNA polymerase): did not interfere with incorporation of dCTP into DNA
substrate for DNA polymerase (E. coli DNA Polymerase 1; E. coli DNA polymerase): did not serve as a substrate
cpm [^3 H]dAMP incorporated (E. coli DNA Polymerase 1; nucleotide 0.039 μM (mixture: dCTP at this concentration + N-MeMMdCTP 0.625 μM)): -18 cpm
cpm [^3 H]dAMP incorporated (E. coli DNA Polymerase 1; nucleotide 0.078 μM (mixture: dCTP at this concentration + N-MeMMdCTP 0.625 μM)): -7 cpm
cpm [^3 H]dAMP incorporated (E. coli DNA Polymerase 1; nucleotide 0.156 μM (mixture: dCTP at this concentration + N-MeMMdCTP 0.625 μM)): 3 cpm
cpm [^3 H]dAMP incorporated (E. coli DNA Polymerase 1; nucleotide 0.312 μM (mixture: dCTP at this concentration + N-MeMMdCTP 0.625 μM)): -9 cpm
cpm [^3 H]dAMP incorporated (E. coli DNA Polymerase 1; nucleotide 0.625 μM (mixture: dCTP at this concentration + N-MeMMdCTP 0.625 μM)): 3 cpm
cpm [^3 H]dAMP incorporated (E. coli DNA Polymerase 1; nucleotide 1.25 μM (mixture: dCTP at this concentration + N-MeMMdCTP 0.625 μM)): -20 cpm
cpm [^3 H]dAMP incorporated (E. coli DNA Polymerase 1; nucleotide 2.50 μM (mixture: dCTP at this concentration + N-MeMMdCTP 0.625 μM)): -17 cpm
cpm [^3 H]dAMP incorporated (E. coli DNA Polymerase 1; nucleotide 5.0 μM (mixture: dCTP at this concentration + N-MeMMdCTP 0.625 μM)): -16 cpm

Compound: Nc1ccn([C@H]2C[C@H](O)[C@@H](CO)O2)c(=O)n1 [deoxycytidine, 2'-deoxycytidine, reference compound]
reversal of antiviral activity of MMdCyd, order of potency [2]: deoxythymidine>deoxyuridine>deoxycytidine
effect on dose-response curve of MMdCyd ([2]; equimolar concentrations, FIG. 5): parallel upward shift

Compound: Cc1cn([C@H]2C[C@H](O)[C@@H](CO)O2)c(=O)[nH]c1=O [deoxythymidine, 2'-deoxyribosylthymidine (thymidine), reference compound]
reversal of antiviral activity of MMdCyd, order of potency [2]: deoxythymidine>deoxyuridine>deoxycytidine

Compound: O=c1ccn([C@H]2C[C@H](O)[C@@H](CO)O2)c(=O)[nH]1 [deoxyuridine, 2'-deoxyuridine, reference compound]
reversal of antiviral activity of MMdCyd, order of potency [2]: deoxythymidine>deoxyuridine>deoxycytidine
